Data as given in patent US20200069592A1, “HSP90 INHIBITOR ORAL FORMULATIONS AND RELATED METHODS” (Samus Therapeutics, Inc., priority 2017, published 2020).

Assays:
[1] = Plasma pharmacokinetics after single oral dose in ORA-Plus or SyrSpend SF (Example 6), LC-MS/MS; format: in vivo, Sprague Dawley rats; conditions: for AUC % Extrap / Cl_F / Vz_F / AUC(0-inf) / AUC(0-t) / Cmax / Tmax / half-life: rat plasma; for % AUC0-last test vs reference: rats, ratio of group averages; for AUC(0-inf) / AUC(0-t) / Cmax / Tmax / half-life: female, rat, plasma, po
[2] = Plasma pharmacokinetics after single PO or IV administration (Example 5), LC-MS/MS; conditions: for Tmax / AUC(0-t) / Cmax: female, rat, plasma, free base; for Tmax: Tmax (hr) Mean ± StdDev; for AUC(0-t): AUC0-last (hr*ng/mL) Mean ± StdDev; for Cmax: Cmax (ng/mL) Mean ± StdDev
Experimental: The animals used in this study were female Sprague Dawley Rats physiologically normal. At the time of receipt, mice were 200-225 g in weight. […] Ninety-four total animals were observed thereafter. The parenteral administration is performed by tail vein injection.
Compound 2 was provided in free base form and stored at −20° C., protected from light. Compound 2 was formulated in dosage form immediately prior to use. For oral administration of Compound 2 in ORA-Plus® drinking solution, Compound 2 was suspended in drinking solution ORA-Plus® (Perrigo; Minneapolis, Minn.). First, a mortar and pestle were used to smooth out the Compound 2 powder, then a small amount of ORA-Plus® was added, and next, the mixture was triturated to a thick, smooth paste. The remainder of the ORA-Plus® was added by geometric dilution. The Compound 2 free base and ORA-Plus® mixture was dispensed in a tight, light resistant amber bottle with appropriate labeling. This mixture was shaken well before using, protected from light and kept refrigerated if dosing was delayed. For oral administration of Compound 2 in citric acid buffer with Captisol®, Compound 2 free base powder was dissolved or suspended into 30% Captisol® (Cydex Pharmaceuticals; Lawrence, Kans.) in 60 mM citrate buffer (pH˜4.2) (citric acid and sodium citrate dehydrate (Sigma-Aldrich; St. Louis Mo.)) in sterile water) to each group's working concentration. […] A magnetic stir-bar was used to mix dosing solution, followed by sonication. For intravenous administration, Compound 2 free base powder was dissolved into 15% Captisol® in 5 mM citrate buffer (pH˜4.2) to each group's working concentration. A magnetic stirbar was used to mix dosing solution, followed by sonication. IV dosing solution of Compound 2 free base was filtered with a 0.2 m PVDF filter (Pall Life Sciences; Port Washington, N.Y.) prior to administration.
Dose levels of Compound 1 were based on the free base, not the salt.
Animals were randomized using random equilibration of body weights on Day 1 into one of 19 study groups, as shown in Table 23 (Groups 1-19), with 5 animals in each group, except for the 4 animals in Group 19. Body weights were collected Days 1, 2, 3, and/or 4 to accommodate data collection of staggered groups. Gross observations of body weight were noted during the course of the study.

[3] = Tolerability (body weight, toxicity, maximum tolerated dose) in the Example 5 rat study; format: in vivo; conditions: free base
Experimental: Ninety-four total animals were observed thereafter. The parenteral administration is performed by tail vein injection.

[4] = G1: free base, 24 mg/kg single oral dose, ORA-plus
[5] = G2: free base, 48 mg/kg single oral dose, ORA-plus, n = 4
[6] = G7: free base, 24 mg/kg single oral dose, SyrSpend, n = 4
[7] = G8: free base, 48 mg/kg single oral dose, SyrSpend
[8] = Sprague Dawley, 24 mg/kg, G1: free base, 24 mg/kg single oral dose, ORA-plus
[9] = Sprague Dawley, 48 mg/kg, G2: free base, 48 mg/kg single oral dose, ORA-plus
[10] = Sprague Dawley, 48 mg/kg, G2: free base, 48 mg/kg single oral dose, ORA-plus, n = 4
[11] = Sprague-Dawley, 24 mg/kg, G7: free base, 24 mg/kg single oral dose, SyrSpend
[12] = Sprague-Dawley, 24 mg/kg, G7: free base, 24 mg/kg single oral dose, SyrSpend, n = 4
[13] = Sprague-Dawley, 48 mg/kg, G8: free base, 48 mg/kg single oral dose, SyrSpend
[14] = 24 mg/kg PO, Group 1 (ORA-plus) relative to Group 5 (citrate buffer-Captisol)
[15] = 36 mg/kg PO, Group 2 (ORA-plus) relative to Group 6 (citrate buffer-Captisol)
[16] = 48 mg/kg PO, Group 3 (ORA-plus) relative to Group 7 (citrate buffer-Captisol)
[17] = 60 mg/kg PO, Group 4 (ORA-plus) relative to Group 8 (citrate buffer-Captisol)
[18] = Sprague Dawley, po, 24 mg/kg, Group 5: 24 mg/kg PO, 60 mM Citric acid buffer + 30% Captisol
[19] = Sprague Dawley, po, 36 mg/kg, Group 2: 36 mg/kg PO, ORA-Plus
[20] = Sprague Dawley, po, 36 mg/kg, Group 6: 36 mg/kg PO, 60 mM Citric acid buffer + 30% Captisol
[21] = Sprague Dawley, po, 48 mg/kg, Group 3: 48 mg/kg PO, ORA-Plus
[22] = Sprague Dawley, po, 48 mg/kg, Group 7: 48 mg/kg PO, 60 mM Citric acid buffer + 30% Captisol
[23] = Sprague Dawley, po, 60 mg/kg, Group 4: 60 mg/kg PO, ORA-Plus
[24] = Sprague Dawley, po, 60 mg/kg, Group 8: 60 mg/kg PO, 60 mM Citric acid buffer + 30% Captisol
[25] = Sprague-Dawley, iv, 12 mg/kg, Group 9: 12 mg/kg IV, 5 mM Citric acid buffer + 15% Captisol
[26] = Sprague-Dawley, iv, 24 mg/kg, Group 10: 24 mg/kg IV, 5 mM Citric acid buffer + 15% Captisol
[27] = Sprague-Dawley, po, 24 mg/kg, Group 1: 24 mg/kg PO, ORA-Plus, single dose

## CC(C)(C)CNCCn1c(Sc2cc3c(cc2I)OCO3)nc2c(N)ncnc21 [Compound 2]
[1]; [4]
  AUC % Extrap: 2.77 ± 0.30%
  Cl_F: 249.8 ± 24.2 mL/min/kg
  Vz_F: 50.18 ± 39.85 L/kg
[1]; [5]
  AUC % Extrap: 6.22 ± 6.79 %
  Cl_F: 177.2 ± 65.5 mL/min/kg
  Vz_F: 38.84 ± 10.64 L/kg
[1]; [6]
  AUC % Extrap: 6.89 ± 3.49 %
  Cl_F: 369.7 ± 105 mL/min/kg
  Vz_F: 88.96 ± 44.19 L/kg
[1]; [7]
  AUC % Extrap: 1.71 ± 1.37%
  Cl_F: 136 ± 105 mL/min/kg
  Vz_F: 44.20 ± 37.62 L/kg
[1]; Group 1 (24 mg/kg FB ORA-plus) vs Group 3 (24 mg/kg 2HCl ORA-plus)
  % AUC0-last test vs reference: 121.69%
[1]; Group 1 (24 mg/kg FB ORA-plus) vs Group 4 (48 mg/kg 2HCl ORA-plus)
  % AUC0-last test vs reference: 24.79%
[1]; Group 1 (24 mg/kg FB ORA-plus) vs Group 7 (24 mg/kg FB SyrSpend)
  % AUC0-last test vs reference: 123.40%
[1]; Group 1 (24 mg/kg FB ORA-plus) vs Group 9 (24 mg/kg 2HCl SyrSpend)
  % AUC0-last test vs reference: 133.31%
[1]; Group 2 (48 mg/kg FB ORA-plus) vs Group 4 (48 mg/kg 2HCl ORA-plus)
  % AUC0-last test vs reference: 70.46%
[1]; Group 2 (48 mg/kg FB ORA-plus) vs Group 8 (48 mg/kg FB SyrSpend)
  % AUC0-last test vs reference: 54.72%
[1]; Group 2 (48 mg/kg FB ORA-plus) vs Group 10 (48 mg/kg 2HCl SyrSpend)
  % AUC0-last test vs reference: 51.93%
[1]; Group 7 (24 mg/kg FB SyrSpend) vs Group 9 (24 mg/kg 2HCl SyrSpend)
  % AUC0-last test vs reference: 108.03%
[1]; Group 8 (48 mg/kg FB SyrSpend) vs Group 10 (48 mg/kg 2HCl SyrSpend)
  % AUC0-last test vs reference: 94.91%
[1]; [8]
  AUC(0-inf): 1610 ± 156 ng·h/mL
  AUC(0-t): 1570 ± 152 ng·h/mL
  Cmax: 579 ± 108 ng/mL
  Tmax: 1.4 ± 0.55 h
  half-life: 2.36 ± 1.98 h
[1]; [9]
  AUC(0-t): 4460 ± 2110 ng·h/mL
  Cmax: 803 ± 278 ng/mL
  Tmax: 2.8 ± 1.64 h
[1]; [10]
  AUC(0-inf): 5060 ± 2070 ng·h/mL
  half-life: 2.61 ± 0.44 h
[1]; [11]
  AUC(0-t): 1270 ± 524 ng·h/mL
  Cmax: 371 ± 196 ng/mL
  Tmax: 1 h
[1]; [12]
  AUC(0-inf): 1180 ± 451 ng·h/mL
  half-life: 2.78 ± 1.13 h
[1]; [13]
  AUC(0-inf): 8080 ± 4090 ng·h/mL
  AUC(0-t): 8140 ± 3550 ng·h/mL
  Cmax: 1030 ± 421 ng/mL
  Tmax: 3.4 ± 1.95 h
  half-life: 3.56 ± 1.03 h
[1]; single oral dose, free base or 2HCl, ORA-Plus or SyrSpend
  Time point up to which all animals had quantifiable plasma levels: ≥ 8 h
[2]; [14]
  % AUC0-last (hr*ng/mL) ORA vs Citrate Mean ± StdDev: 48.63 ± 15.03%
  % Cmax (ng/mL) ORA vs Citrate Mean ± StdDev: 47.65 ± 16.52%
[2]; [15]
  % AUC0-last (hr*ng/mL) ORA vs Citrate Mean ± StdDev: 91.18 +/− 72.46%
  % Cmax (ng/mL) ORA vs Citrate Mean ± StdDev: 89.97 +/− 82.63%
[2]; [16]
  % AUC0-last (hr*ng/mL) ORA vs Citrate Mean ± StdDev: 94.75 +/− 64.83%
  % Cmax (ng/mL) ORA vs Citrate Mean ± StdDev: 99.04 +/− 80.01%
[2]; [17]
  % AUC0-last (hr*ng/mL) ORA vs Citrate Mean ± StdDev: 75.93 +/− 63.12%
  % Cmax (ng/mL) ORA vs Citrate Mean ± StdDev: 83.99 +/− 73.13%
[2]; Sprague Dawley, iv, 12 mg/kg, Group 9: 12 mg/kg IV, 5 mM Citric acid buffer + 15% Captisol
  Tmax: 0.25 h
[2]; [18]
  AUC(0-t): 2010 ± 176 ng·h/mL
  Cmax: 685 ± 109 ng/mL
  Tmax: 1.8 ± 0.45 h
[2]; [19]
  AUC(0-t): 2680 ± 811 ng·h/mL
  Cmax: 747 ± 238 ng/mL
  Tmax: 1.5 ± 1.41 h
[2]; [20]
  AUC(0-t): 2940 ± 1570 ng·h/mL
  Cmax: 831 ± 618 ng/mL
  Tmax: 2.4 ± 2.07 h
[2]; [21]
  AUC(0-t): 5220 ± 2760 ng·h/mL
  Cmax: 1240 ± 519 ng/mL
  Tmax: 2.7 ± 1.79 h
[2]; [22]
  AUC(0-t): 5510 ± 2590 ng·h/mL
  Cmax: 1400 ± 626 ng/mL
  Tmax: 1.4 ± 0.55 h
[2]; [23]
  AUC(0-t): 3560 ± 906 ng·h/mL
  Cmax: 909 ± 302 ng/mL
  Tmax: 3 ± 2.74 h
[2]; [24]
  AUC(0-t): 4750 ± 3070 ng·h/mL
  Cmax: 1080 ± 584 ng/mL
  Tmax: 4.4 ± 1.67 h
[2]; [25]
  AUC(0-t): 3390 ± 402 ng·h/mL
  Cmax: 2360 ± 92.7 ng/mL
[2]; [26]
  AUC(0-t): 7500 ± 552 ng·h/mL
  Cmax: 5110 ± 416 ng/mL
  Tmax: 0.25 h
[2]; [27]
  AUC(0-t): 975 ± 304 ng·h/mL
  Cmax: 321 ± 111 ng/mL
  Tmax: 0.9 ± 0.22 h
[3]; female, Sprague Dawley, rat, in vivo, iv, intravenously administered, rats, read-out: Maximum tolerated dose
  MTD: 24 mg/kg
[3]; higher oral doses (above 24 mg/kg), data not shown
  Body weight and toxicity: minimal effects on body weight and limited toxicity
